How the values were obtained:
Fusarium culmorum = Fusarium culmorum (foot rot of cereals) in vitro test, radial growth on potato dextrose agar; format: cell-based; settings: 168 h, 300 ppm in potato dextrose agar, 25° C., 60% relative humidity, seven days, read-out: control compared to the untreated check (radial growth)
Procedure: Compounds were dissolved in 0.3% dimethyl sulfoxide and then added to potato dextrose agar medium just prior to dispensing it into petri dishes. 5 mL medium with the compound in the desired concentration was dispensed into 60 mm sterile petri-plates. After solidification each plate was seeded with a 5 mm size mycelial disc taken from the periphery of an actively growing virulent culture plate. Plates were incubated in growth chambers at 25° C. temperature and 60% relative humidity for seven days and then the radial growth was measured and compared to that of the untreated control.

Pyricularia oryzae = test: microbe, parasite or virus in culture; format: cell-based; settings: 168 h, read-out: control compared to the untreated check (radial growth)
Botrytis cinerea = Botrytis cinerea (gray mold) in vitro test, radial growth on potato dextrose agar; format: cell-based; settings: 168 h, 300 ppm in potato dextrose agar, 22° C., 90% relative humidity, seven days, read-out: control compared to the untreated check (radial growth)
Alternaria solani = Alternaria solani (early blight of tomato/potato) in vitro test, radial growth on potato dextrose agar; format: cell-based; settings: 168 h, 300 ppm in potato dextrose agar, 25° C., 60% relative humidity, seven days, read-out: control compared to the untreated check (radial growth)
Rhizoctonia solani = Rhizoctonia solani (rice sheath blight/potato black scurf) in vitro test, radial growth on potato dextrose agar; format: cell-based; settings: 168 h, 300 ppm in potato dextrose agar, 25° C., 60% relative humidity, seven days, read-out: control compared to the untreated check (radial growth)
[1] = system: Septoria lycopersici/Corynespora cassicola (CORYCA); test: Septoria lycopersici/Corynespora cassicola (CORYCA) (leaf spot of tomato) in vitro test, radial growth on potato dextrose agar; format: cell-based; settings: 168 h, 300 ppm in potato dextrose agar, 25° C., 70% relative humidity, seven days, read-out: control compared to the untreated check (radial growth)
Phakopsora pachyrhizi = Phakopsora pachyrhizi test in soybean, preventive, in vivo on plants; settings: in Glycine max, read-out: Efficacy (% control), disease severity compared to the untreated check
Colletotrichum capsici = Colletotrichum capsici (anthracnose) in vitro test, radial growth on potato dextrose agar; format: cell-based; settings: Colletotrichum truncatum, 168 h; 300 ppm in potato dextrose agar; 25° C., 60% relative humidity, seven days; read-out: control compared to the untreated check (radial growth)

CCN(C)C=Nc1cc(OC)cc(Cc2cccc(OC(F)(F)F)c2)c1C [Compound 305, N-ethyl-N′-(5-methoxy-2-methyl-3-(3-(trifluoromethoxy)benzyl)phenyl)-N-methylformimidamide]
≥ 70%: inhibition of growth at 300 ppm (Fusarium culmorum) | inhibition of growth at 300 ppm (Pyricularia oryzae) | inhibition of growth at 300 ppm (Botrytis cinerea) | inhibition of growth at 300 ppm (Alternaria solani) | inhibition of growth at 300 ppm (Rhizoctonia solani) | inhibition of growth at 300 ppm [1]

CCN(C)C=Nc1cc(OC)cc(Cc2ccccc2Cl)c1C [Compound 265, N′-(3-(2-chlorobenzyl)-5-methoxy-2-methylphenyl)-N-ethyl-N-methylformimidamide]
≥ 70%: inhibition of growth at 300 ppm (Fusarium culmorum) | inhibition of growth at 300 ppm (Pyricularia oryzae) | inhibition of growth at 300 ppm (Botrytis cinerea) | inhibition of growth at 300 ppm (Alternaria solani) | inhibition of growth at 300 ppm (Rhizoctonia solani) | inhibition of growth at 300 ppm [1]

CCN(C)C=Nc1cc(Cl)cc(N(C)c2ncccn2)c1C [Compound 214, N′-(5-chloro-2-methyl-3-(methyl(pyrimidin-2-yl)amino)phenyl)-N-ethyl-N-methylformimidamide]
≥ 70%: inhibition of growth at 300 ppm (Fusarium culmorum) | inhibition of growth at 300 ppm (Pyricularia oryzae) | inhibition of growth at 300 ppm (Alternaria solani) | inhibition of growth at 300 ppm (Rhizoctonia solani) | pest or weed control at 500 ppm (Phakopsora pachyrhizi) | inhibition of growth at 300 ppm [1]

CCN(C)C=Nc1cc(OC)cc(N(C)c2ccc(OC)c(F)c2)c1C [Compound 271, N-ethyl-N′-(3-((3-fluoro-4-methoxyphenyl)(methyl)amino)-5-methoxy-2-methylphenyl)-N-methylformimidamide]
≥ 70%: inhibition of growth at 300 ppm (Fusarium culmorum) | inhibition of growth at 300 ppm (Pyricularia oryzae) | inhibition of growth at 300 ppm (Alternaria solani) | inhibition of growth at 300 ppm [1]

CCN(C)C=Nc1cc(F)cc(Cc2ccccc2Cl)c1C [Compound 142, N′-(3-(2-chlorobenzyl)-5-fluoro-2-methylphenyl)-N-ethyl-N-methylformimidamide]
≥ 70%: inhibition of growth at 300 ppm (Fusarium culmorum) | inhibition of growth at 300 ppm (Pyricularia oryzae) | inhibition of growth at 300 ppm (Botrytis cinerea) | inhibition of growth at 300 ppm (Alternaria solani) | inhibition of growth at 300 ppm (Rhizoctonia solani) | inhibition of growth at 300 ppm [1]

CCN(C)C=Nc1cc(F)cc(Cc2cccc(Cl)c2)c1C [Compound 144, N′-(3-(3-chlorobenzyl)-5-fluoro-2-methylphenyl)-N-ethyl-N-methylformimidamide]
≥ 70%: inhibition of growth at 300 ppm (Pyricularia oryzae) | inhibition of growth at 300 ppm (Botrytis cinerea) | inhibition of growth at 300 ppm (Alternaria solani) | inhibition of growth at 300 ppm (Rhizoctonia solani) | inhibition of growth at 300 ppm (Colletotrichum capsici) | pest or weed control at 500 ppm (Phakopsora pachyrhizi) | inhibition of growth at 300 ppm [1]

CCN(C)C=Nc1cc(C)cc(Nc2cc(Cl)ccc2C)c1Cl [Compound 100, N′-(2-chloro-3-((5-chloro-2-methylphenyl)amino)-5-methylphenyl)-N-ethyl-N-methylformimidamide]
≥ 70%: inhibition of growth at 300 ppm (Pyricularia oryzae) | inhibition of growth at 300 ppm (Botrytis cinerea) | inhibition of growth at 300 ppm (Alternaria solani) | inhibition of growth at 300 ppm (Rhizoctonia solani) | inhibition of growth at 300 ppm (Colletotrichum capsici) | pest or weed control at 500 ppm (Phakopsora pachyrhizi) | inhibition of growth at 300 ppm [1]

CCN(C)C=Nc1cc(C)cc(Nc2c(C)cccc2F)c1Cl [Compound 133, N′-(2-chloro-3-((2-fluoro-6-methylphenyl)amino)-5-methylphenyl)-N-ethyl-N-methylformimidamide]
≥ 70%: inhibition of growth at 300 ppm (Pyricularia oryzae) | inhibition of growth at 300 ppm (Botrytis cinerea) | inhibition of growth at 300 ppm (Alternaria solani) | inhibition of growth at 300 ppm (Rhizoctonia solani) | inhibition of growth at 300 ppm (Colletotrichum capsici) | pest or weed control at 500 ppm (Phakopsora pachyrhizi) | inhibition of growth at 300 ppm [1]

CCN(C)C=Nc1cc(Cl)cc(Cc2ccc(F)c(C)c2)c1C [Compound 128, N′-(5-chloro-3-(4-fluoro-3-methylbenzyl)-2-methylphenyl)-N-ethyl-N-methylformimidamide]
≥ 70%: inhibition of growth at 300 ppm (Pyricularia oryzae) | inhibition of growth at 300 ppm (Botrytis cinerea) | inhibition of growth at 300 ppm (Alternaria solani) | inhibition of growth at 300 ppm (Rhizoctonia solani) | inhibition of growth at 300 ppm (Colletotrichum capsici) | pest or weed control at 500 ppm (Phakopsora pachyrhizi) | inhibition of growth at 300 ppm [1]

CCN(C)C=Nc1cc(OC)cc(Cc2ccccc2F)c1C [Compound 266, N-ethyl-N′-(3-(2-fluorobenzyl)-5-methoxy-2-methylphenyl)-N-methylformimidamide]
≥ 70%: inhibition of growth at 300 ppm (Fusarium culmorum) | inhibition of growth at 300 ppm (Pyricularia oryzae) | inhibition of growth at 300 ppm (Alternaria solani) | inhibition of growth at 300 ppm (Rhizoctonia solani) | pest or weed control at 500 ppm (Phakopsora pachyrhizi) | inhibition of growth at 300 ppm [1]

CCN(C)C=Nc1cc(C)cc(Cc2ccccc2F)c1Cl [Compound 14, N′-(2-chloro-3-(2-fluorobenzyl)-5-methylphenyl)-N-ethyl-N-methylformimidamide]
≥ 70%: inhibition of growth at 300 ppm (Pyricularia oryzae) | inhibition of growth at 300 ppm (Botrytis cinerea) | inhibition of growth at 300 ppm (Alternaria solani) | inhibition of growth at 300 ppm (Rhizoctonia solani) | inhibition of growth at 300 ppm (Colletotrichum capsici) | pest or weed control at 500 ppm (Phakopsora pachyrhizi) | inhibition of growth at 300 ppm [1]

CCN(C)C=Nc1cc(C)cc(Cc2ccc(Br)cc2F)c1Cl [Compound 217, N′-(3-(4-bromo-2-fluorobenzyl)-2-chloro-5-methylphenyl)-N-ethyl-N-methylformimidamide]
≥ 70%: inhibition of growth at 300 ppm (Pyricularia oryzae) | inhibition of growth at 300 ppm (Botrytis cinerea) | inhibition of growth at 300 ppm (Alternaria solani) | inhibition of growth at 300 ppm (Rhizoctonia solani) | inhibition of growth at 300 ppm (Colletotrichum capsici) | pest or weed control at 500 ppm (Phakopsora pachyrhizi) | inhibition of growth at 300 ppm [1]

CCN(C)C=Nc1cc(Cl)cc(Cc2cc(C)c(F)c(C)c2)c1C [Compound 87, N′-(5-chloro-3-(4-fluoro-3,5-dimethylbenzyl)-2-methylphenyl)-N-ethyl-N-methylformimidamide]
≥ 70%: inhibition of growth at 300 ppm (Fusarium culmorum) | inhibition of growth at 300 ppm (Pyricularia oryzae) | inhibition of growth at 300 ppm (Botrytis cinerea) | inhibition of growth at 300 ppm (Alternaria solani) | inhibition of growth at 300 ppm (Rhizoctonia solani) | pest or weed control at 500 ppm (Phakopsora pachyrhizi)

CCN(C)C=Nc1cc(F)cc(Cc2cc(C)cc(F)c2)c1C [Compound 235, N-ethyl-N′-(5-fluoro-3-(3-fluoro-5-methylbenzyl)-2-methylphenyl)-N-methylformimidamide]
≥ 70%: inhibition of growth at 300 ppm (Pyricularia oryzae) | inhibition of growth at 300 ppm (Botrytis cinerea) | inhibition of growth at 300 ppm (Alternaria solani) | inhibition of growth at 300 ppm (Rhizoctonia solani) | inhibition of growth at 300 ppm (Colletotrichum capsici) | pest or weed control at 500 ppm (Phakopsora pachyrhizi) | inhibition of growth at 300 ppm [1]

CCN(C)C=Nc1cc(C)cc(Cc2c(F)cccc2Cl)c1Cl [Compound 92, N′-(2-chloro-3-(2-chloro-6-fluorobenzyl)-5-methylphenyl)-N-ethyl-N-methylformimidamide]
≥ 70%: inhibition of growth at 300 ppm (Pyricularia oryzae) | inhibition of growth at 300 ppm (Botrytis cinerea) | inhibition of growth at 300 ppm (Alternaria solani) | inhibition of growth at 300 ppm (Rhizoctonia solani) | inhibition of growth at 300 ppm (Colletotrichum capsici) | pest or weed control at 500 ppm (Phakopsora pachyrhizi) | inhibition of growth at 300 ppm [1]

CCN(C)C=Nc1cc(Cl)cc(Cc2ccccc2)c1C [Compound 79, N′-(3-benzyl-5-chloro-2-methylphenyl)-N-ethyl-N-methylformimidamide]
≥ 70%: inhibition of growth at 300 ppm (Pyricularia oryzae) | inhibition of growth at 300 ppm (Botrytis cinerea) | inhibition of growth at 300 ppm (Alternaria solani) | inhibition of growth at 300 ppm (Rhizoctonia solani) | inhibition of growth at 300 ppm (Colletotrichum capsici) | pest or weed control at 500 ppm (Phakopsora pachyrhizi) | inhibition of growth at 300 ppm [1]

— patent publication US12545639B2, “3-substituted phenylamidine compounds, preparation and use thereof” (PI INDUSTRIES LTD., priority 2019, dated 2026)
